Results taken from patent US12391737B2, “Soluble NPY2 receptor agonists” (Boehringer Ingelheim International GmbH, priority 2020, dated 2025).

Legend:
[1] = target: T1, Human Neuropeptide Y2 Receptor (Homo sapiens, UniProt P49146); experiment: Radioligand binding competition assay (RLB); settings: Table 3, 125I-PYY(1-36) competition; read-out: Ki
T1 construct: purchased CHEMICON HTS066M
T1 sequence (P49146 1-381): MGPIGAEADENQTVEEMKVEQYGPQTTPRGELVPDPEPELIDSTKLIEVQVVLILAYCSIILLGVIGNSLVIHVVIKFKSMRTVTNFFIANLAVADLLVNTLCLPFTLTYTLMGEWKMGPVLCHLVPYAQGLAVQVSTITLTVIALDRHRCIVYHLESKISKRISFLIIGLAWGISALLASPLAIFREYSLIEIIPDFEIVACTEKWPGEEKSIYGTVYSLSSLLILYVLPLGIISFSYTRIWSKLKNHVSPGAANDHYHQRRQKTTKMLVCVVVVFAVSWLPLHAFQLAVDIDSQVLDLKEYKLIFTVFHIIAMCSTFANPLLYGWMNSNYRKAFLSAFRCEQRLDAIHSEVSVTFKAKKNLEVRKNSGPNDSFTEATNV
Outline: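 Competition binding used membranes expressing the receptor (0.5 μg protein/well) in 50 mM HEPES, 5 mM MgCl2, 1 mM CaCl2, pH 7.4 with 0.2% ovalbumin, incubated 2 h at room temperature with shaking. Bound radioligand was collected by filtration onto PEI-soaked GF/C filters and counted; IC50 from nonlinear sigmoidal fits.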

[2] = Solubility determination; settings: for Sol6: pH 6; for Sol7: pH 7
Outline: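 Sample: TFA-salt peptide at 10 mg/ml target in 0.1 M Na diphosphate, pH 6.4 or 7.0, shaken 2 h RT, filtered, diluted to 1 mg/ml.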

[3] = target: T2, human NPY2 receptor (hY2R) (Homo sapiens, UniProt P49146); experiment: HTRF cAMP Gi assay, hY2R
T2 sequence (P49146 1-381): T1 sequence (P49146 1-381)
Source text: The Homogenous Time Resolved fluorescence (HTRF) technology optimized for Gi coupled receptors has thoroughly been described in Cisbio cAMP Gi kit manual. Briefly, the production of intracellular cAMP will generate a competition between unlabeled cAMP and exogenously added d2-cAMP for anti-cAMP antibodies conjugated to cryptate. CHO-K1 cells stably expressing the human NPY1, NPY2, NPY4 and NPY5 receptors were used with the cells brought to life from a frozen stock immediately before assay performance. 2000 cells per well were applied for all four NPY receptor subtype assays. A 384-well format was used applying a total volume of 20 μl using 5 μl cells, 2.5 μl peptide agonist, 2.5 μl forskolin and 5 μl of each of the fluorophores. […] Concentration-response evaluation of compounds was performed with 11 concentrations of agonist peptides (covering 3 decades). EC50 values were calculated by nonlinear regression using sigmoid concentration-response with variable slope.

[4] = target: T3, human NPY5 receptor (hY5R) (Homo sapiens, UniProt Q15761); experiment: HTRF cAMP Gi assay, hY5R
T3 sequence (Q15761 1-445): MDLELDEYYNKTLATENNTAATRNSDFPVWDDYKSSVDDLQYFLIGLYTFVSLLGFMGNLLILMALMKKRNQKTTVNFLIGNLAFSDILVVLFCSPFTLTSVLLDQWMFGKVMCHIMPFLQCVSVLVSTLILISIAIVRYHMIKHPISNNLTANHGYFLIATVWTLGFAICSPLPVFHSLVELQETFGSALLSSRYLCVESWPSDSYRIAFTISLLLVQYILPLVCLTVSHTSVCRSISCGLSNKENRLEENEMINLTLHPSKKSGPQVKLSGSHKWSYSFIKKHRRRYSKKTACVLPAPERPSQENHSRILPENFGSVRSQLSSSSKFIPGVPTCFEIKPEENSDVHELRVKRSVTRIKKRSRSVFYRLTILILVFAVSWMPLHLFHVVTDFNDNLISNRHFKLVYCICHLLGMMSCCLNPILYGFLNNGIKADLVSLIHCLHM

SMILES | Ki [1] [nM] | Sol6 [2] [mg/mL] | Sol7 [2] [mg/mL] | EC50 [3] [nM] | EC50 [4] [nM]
CC(C)CC(=O)N[C@@H](C)C(=O)N1CCC[C@H]1C(=O)N[C@@H](CCC(=O)O)C(=O)N[C@@H](CCCCNC(=O)CCCCCNC(=O)CC[C@H](NC(=O)CCCCCCCCCCCCCCCCC(=O)O)C(=O)O)C(=O)N1CCC[C@H]1C(=O)N1CCC[C@H]1C(=O)N[C@@H](CCC(=O)O)C(=O)N[C@@H](CC(=O)O)C(=O)N[C@@H](C)C(=O)N[C@@H](CO)C(=O)N1CCC[C@H]1C(=O)N[C@@H](CCC(=O)O)C(=O)N[C@@H](CCC(=O)O)C(=O)N[C@@H](CC(C)C)C(=O)N[C@@H](CCC(N)=O)C(=O)N[C@@H](CCCNC(=N)N)C(=O)N[C@@H](Cc1ccc(O)cc1)C(=O)N[C@@H](Cc1ccc(O)cc1)C(=O)N[C@H](C(=O)N[C@@H](CO)C(=O)N[C@@H](CC(C)C)C(=O)N[C@@H](CCCNC(=N)N)C(=O)N[C@@H](Cc1c[nH]cn1)C(=O)N[C@@H](Cc1ccc(O)cc1)C(=O)N[C@@H](Cc1ccc(O)cc1)C(=O)N[C@@H](CC(N)=O)C(=O)N[C@@H](Cc1c[nH]c2ccccc12)C(=O)N[C@@H](CC(C)C)C(=O)N[C@H](C(=O)N[C@@H](CCCNC(=N)N)C(=O)N[C@@H](CCC(N)=O)C(=O)N[C@@H](CCCNC(=N)N)C(=O)N[C@@H](Cc1ccc(O)cc1)C(N)=O)[C@@H](C)O)C(C)C [Compound 14, N{alpha-4}-(3-methylbutanoyl)-N{epsilon-7}-(6-[(4S)-4-carboxy-4-(17-carboxyheptadecanamido)butanamido]hexanoyl)-[4A,7K,9P,18Q,22V,28Y,30W,31L]-hPYY(4-36)] | 1.28 | 9.3 | 8.4 | 0.086 | > 5000
CC(C)CC(=O)N[C@@H](C)C(=O)N1CCC[C@H]1C(=O)N[C@@H](CCC(=O)O)C(=O)N[C@@H](CCCCNC(=O)CCCCCNC(=O)CC[C@H](NC(=O)CCCCCCCCCCCCCCCCC(=O)O)C(=O)O)C(=O)N1CCC[C@H]1C(=O)N[C@@H](CCC(=O)O)C(=O)N[C@@H](C)C(=O)N[C@@H](CC(=O)O)C(=O)N[C@@H](C)C(=O)N[C@@H](CCC(=O)O)C(=O)N1CCC[C@H]1C(=O)N[C@@H](CCC(=O)O)C(=O)N[C@@H](CCC(=O)O)C(=O)N[C@@H](CC(C)C)C(=O)N[C@@H](CCC(N)=O)C(=O)N[C@@H](CCCNC(=N)N)C(=O)N[C@@H](Cc1ccc(O)cc1)C(=O)N[C@@H](Cc1ccc(O)cc1)C(=O)N[C@H](C(=O)N[C@@H](CO)C(=O)N[C@@H](CC(C)C)C(=O)N[C@@H](CCCNC(=N)N)C(=O)N[C@@H](Cc1c[nH]cn1)C(=O)N[C@@H](Cc1ccc(O)cc1)C(=O)N[C@@H](Cc1ccc(O)cc1)C(=O)N[C@@H](CC(N)=O)C(=O)N[C@@H](Cc1c[nH]c2ccccc12)C(=O)N[C@@H](CC(C)C)C(=O)N[C@H](C(=O)N[C@@H](CCCNC(=N)N)C(=O)N[C@@H](CCC(N)=O)C(=O)N[C@@H](CCCNC(=N)N)C(=O)N[C@@H](Cc1ccc(O)cc1)C(N)=O)[C@@H](C)O)C(C)C [Compound 72, N{alpha-4}-(3-methylbutanoyl)-N{epsilon-7}-(6-[(4S)-4-carboxy-4-(17-carboxyheptadecanamido)butanamido]hexanoyl)-[4A,7K,9E,10A,13E,18Q,22V,28Y,30W,31L]-hPYY(4-36)] | 2.79 | 9.0 | 9.2 | 0.197 | > 5000
CC(C)CC(=O)N[C@@H](C)C(=O)N1CCC[C@H]1C(=O)N[C@@H](CCC(=O)O)C(=O)N[C@@H](CCCCNC(=O)CCCCCNC(=O)CC[C@H](NC(=O)CCCCCCCCCCCCCCCCC(=O)O)C(=O)O)C(=O)N1CCC[C@H]1C(=O)N[C@@H](CCC(=O)O)C(=O)N[C@@H](CCC(=O)O)C(=O)N[C@@H](CCC(=O)O)C(=O)N[C@@H](C)C(=O)N[C@H](C(=O)N1CCC[C@H]1C(=O)N[C@@H](CCC(=O)O)C(=O)N[C@@H](CCC(=O)O)C(=O)N[C@@H](CC(C)C)C(=O)N[C@@H](CCC(N)=O)C(=O)N[C@@H](CCCNC(=N)N)C(=O)N[C@@H](Cc1ccc(O)cc1)C(=O)N[C@@H](Cc1ccc(O)cc1)C(=O)N[C@H](C(=O)N[C@@H](CO)C(=O)N[C@@H](CC(C)C)C(=O)N[C@@H](CCCNC(=N)N)C(=O)N[C@@H](Cc1c[nH]cn1)C(=O)N[C@@H](Cc1ccc(O)cc1)C(=O)N[C@@H](Cc1ccc(O)cc1)C(=O)N[C@@H](CC(N)=O)C(=O)N[C@@H](Cc1c[nH]c2ccccc12)C(=O)N[C@@H](CC(C)C)C(=O)N[C@H](C(=O)N[C@@H](CCCNC(=N)N)C(=O)N[C@@H](CCC(N)=O)C(=O)N[C@@H](CCCNC(=N)N)C(=O)N[C@@H](Cc1ccc(O)cc1)C(N)=O)[C@@H](C)O)C(C)C)[C@@H](C)O [Compound 146, N{alpha-4}-(3-methylbutanoyl)-N{epsilon-7}-(6-[(4S)-4-carboxy-4-(17-carboxyheptadecanamido)butanamido]hexanoyl)-[4A,7K,9E,11E,13T,18Q,22V,28Y,30W,31L]-hPYY(4-36)] | 8.93 | 9.8 | 9.6 | 0.13 | > 5000
CC(C)CC(=O)N[C@@H](C)C(=O)N1CCC[C@H]1C(=O)N[C@@H](CCC(=O)O)C(=O)N[C@@H](CCCCNC(=O)CCCCCNC(=O)CC[C@H](NC(=O)CCCCCCCCCCCCCCCCC(=O)O)C(=O)O)C(=O)N1CCC[C@H]1C(=O)N[C@@H](CCC(=O)O)C(=O)N[C@@H](C)C(=O)N[C@@H](CC(=O)O)C(=O)N[C@@H](C)C(=O)N[C@@H](CO)C(=O)N1CCC[C@H]1C(=O)N[C@@H](CCC(=O)O)C(=O)N[C@@H](CCC(=O)O)C(=O)N[C@@H](CC(C)C)C(=O)N[C@@H](CCC(N)=O)C(=O)N[C@@H](CCCNC(=N)N)C(=O)N[C@@H](Cc1ccc(O)cc1)C(=O)N[C@@H](Cc1ccc(O)cc1)C(=O)N[C@H](C(=O)N[C@@H](CO)C(=O)N[C@@H](CC(C)C)C(=O)N[C@@H](CCCNC(=N)N)C(=O)N[C@@H](Cc1c[nH]cn1)C(=O)N[C@@H](Cc1ccc(O)cc1)C(=O)N[C@@H](Cc1ccc(O)cc1)C(=O)N[C@@H](CC(N)=O)C(=O)N[C@@H](Cc1c[nH]c2ccccc12)C(=O)N[C@@H](CC(C)C)C(=O)N[C@H](C(=O)N[C@@H](CCCNC(=N)N)C(=O)N[C@@H](CCC(N)=O)C(=O)N[C@@H](CCCNC(=N)N)C(=O)N[C@@H](Cc1ccc(O)cc1)C(N)=O)[C@@H](C)O)C(C)C [Compound 196, N{alpha-4}-(3-methylbutanoyl)-N{epsilon-7}-(6-[(4S)-4-carboxy-4-(17-carboxyheptadecanamido)butanamido]hexanoyl)-[4A,7K,9E,10A,18Q,22V,28Y,30W,31L]-hPYY(4-36)] | 3.57 | 8.4 | 9.8 | 0.086 | > 5000
